Literature values in patent US20240190825A1, “PROCESS FOR PREPARATION OF CABOZANTINIB” (BIOCON LIMITED, priority 2021, published 2024).

In the case of COc1cc2nccc(Oc3ccc(NC(=O)C4(C(=O)Nc5ccc(F)cc5)CC4)cc3)c2cc1OC.O=C(O)C[C@H](O)C(=O)O [Cabozantinib (S)-malate salt, N-(4-(6,7-dimethoxyquinolin-4-yloxy)phenyl)-N′-(4fluorophenyl)cyclopropane-1,1-dicarboxamide, (2S)-hydroxybutanedioate], the “solubility in aqueous media” value (aqueous media) is listed as “practically insoluble”.
In the case of COc1cc2nccc(Oc3ccc(NC(=O)C4(C(=O)Nc5ccc(F)cc5)CC4)cc3)c2cc1OC [Cabozantinib, N-(4-(6,7-dimethoxyquinolin-4-yloxy)phenyl)-N′-(4Fluorophenyl) cyclopropane-1,1-dicarboxamide], the water solubility (water) is given as “poorly water-soluble”.
In the case of COc1cc2nccc(Oc3ccc(NC(=O)C4(C(=O)Nc5ccc(F)cc5)CC4)cc3)c2cc1OC.O=C(O)C[C@H](O)C(=O)O [crystalline form M4], the “solubility of crystal form” value (as disclosed in WO2020057622 A1 on WO2015177758 A1 forms) is listed as “low”.
